Test [1] relates to V79/S. Briefly: Colony formation (proliferation) inhibition, sensitive Chinese hamster cells (A-I Part 1). Format: cell-based. Here is the method:
(§1) Sensitive cell line V79/S and ADM-resistant cell line V79/ADM of the Chinese hamster were used, and sensitive cell line PLC/S and cholchicin-resistant cell line PLC/Col, as human hepatoma cells.
(§2) The sensitive cell lines (400 cells) or the resistant cell lines (600 cells) were each incubated for 24 hours in 10 ml of Eagle's MEM medium containing 10% bovine serum. Each of the drugs indicated in Table 1 below was dissolved in ethanol, and 50 microliters of the resulting solution was added to the medium. The incubation was further carried out for 9 days. The concentration of the drug which inhibits 50% of the colony formation (proliferation) of the tumor cells was calculated.
(§3) V79/S and V79/ADM were tested by using all of the drugs described above, but PLC/S and PLC/Col were tested by using only the malate of formula (I), adriamycin and peplomycin.
(§4) The concentrations (micrograms/ml) required to inhibit 50% of the proliferation of the tumor cells, expressed by IC50, are shown in Table 1.

For test [2], the system named is V79/ADM. The test is described as follows: Colony formation (proliferation) inhibition, ADM-resistant Chinese hamster cells (A-I Part 1). Format: cell-based. Here is the method: as §1, §2, §3, §4
In test [3] the test system is V79/ADM. Briefly: Anti-cancer activity potentiating action, colony formation, V79/ADM resistant cells (A-III). Format: cell-based, Chinese hamster. Conditions: V79/ADM; for IC50: Cricetulus griseus. Here is the method:
(§5) The anti-cancer activity potentiating action of the malate of formula (I) was examined using Chinese hamster cells (sensitive cell line V79/S and ADM-resistant cell line V79/ADM), human hepatoma cells (sensitive cell line PLC/S and colchicin-resistant cell line PLC/Col) and mouse leukemia cells (sensitive cell line L5178Y/S) and aclarubicin-resistant cell line L5178Y/ACR).
(§6) Of these tumor cells, the sensitive cells (400 cells) and the resistant cells (600 cells) were each incubated in 10 ml of Eagle's MEM medium containing 10% bovine serum for 24 hours, and then each of the test drugs indicated in Table 6 was added. Thereafter, the incubation was carried out for 9 days. The concentration (IC50 : micrograms/ml) of the test drug required to inhibit 50% of the colony formation (proliferation) of the tumor cells was calculated.
(§7) (A) Chinese hamster V79 cells
(§8) As anti-cancer agents, there were used adriamycin (ADM), aclarubicin (ACR), actinomycin D (ACD), 5-fluorouracil (5-FU), cytarabin (Ara-C), cisplatin (CDDP), methotrexate (MTX), mitomycin C (MMC), nimustine (ACNU), mitoxantrone, etoposide ([…]), vincristine (VCR), bleomycin (BLM) and peplomycin (PEP). For the sensitive cells, the anti-cancer agents were used in combination with 10 micrograms/ml of the malate of formula (I), and for the resistant cells, the anti-cancer agents were used in combination with the malate of formula (I) 3 micrograms/ml, 5 micrograms/ml, and 10 micrograms/ ml.

Test [4] deals with clinically isolated human cancer cells (lung adenocarcinoma, lung squamous cell carcinoma, osteosarcoma, ovarian carcinoma). Briefly: Anti-tumor activity on clinically isolated human cancer cells, morphological changes (A-I Part 2). Format: cell-based.
The test system of test [5] is V79/S. The test is described as follows: Anti-cancer activity potentiating action, colony formation, V79/S parent cells (A-III). Format: cell-based, Chinese hamster. Conditions: V79/S; for IC50: Cricetulus griseus. Here is the method:
as §5, §6, §7, §8

[6] abbreviates: alone, Table 6, read-out: IC50, anti-cancer agent alone.
The mark [7] stands for this setting: with compound (I) 3 μg/ml, read-out: IC50 in combination with compound (I).
[8] abbreviates: with compound (I) 10 μg/ml, read-out: IC50 in combination with compound (I).

The text below walks through data of patent US5004756A, “Anti-cancer activity potentiator” (priority 1988, dated 1991).

Values after ≈ are worked out from the molar mass of the structure shown.

The IC50 is the point on the concentration scale where inhibition reaches its midpoint. For `[NH2][Pt]([NH2])([Cl])[Cl]` [CDDP, cisplatin], the IC50 with V79/S [1] (V79/S, 9 days, Table 1) worked out at 0.37 µg/mL; with V79/ADM [2] (V79/ADM, 9 days, Table 1) it was 0.32 µg/mL. Besides, the “IC50, anti-cancer agent alone” value in the test on V79/ADM [3] (alone, Table 6) worked out at 0.32 µg/mL; with V79/S [5] (alone, Table 6), 0.37 µg/mL. Also, the “IC50 in combination with compound (I)” value in the test with V79/ADM [3] (with compound (I) 5 μg/ml) worked out at 0.13 µg/mL; in the test with V79/S [5] (with compound (I) 10 μg/ml) it was 0.27 µg/mL. In addition, the Potentiation activity worked out at 2.5 times in the test with V79/ADM [3] (with compound (I) 5 μg/ml) and 1.4 times in the test on V79/S [5] (with compound (I) 10 μg/ml). Further, the “Efficacy ratio (rated significant by Fisher's test)” value in test [4] (0.5 μg/ml) is listed as 4/8.
In the case of `O=P1(N(CCCl)CCCl)NCCCO1` (stereo not shown) [CPM], in test [4] (10 μg/ml), the “Efficacy ratio (rated significant by Fisher's test)” value is 3/8.
In the case of `O=C1c2c(O)ccc(O)c2C(=O)c2c(NCCNCCO)ccc(NCCNCCO)c21` [Mitoxantrone, mitoxantrone], the IC50 came to 0.019 µg/mL (≈ 0.0427 µM) in the test on V79/S [1] (Cricetulus griseus, 216 h, V79/S, 9 days, Table 1, read-out: IC50); 0.36 µg/mL (≈ 0.81 µM) in the test on V79/ADM [2] (Cricetulus griseus, 216 h, V79/ADM, 9 days, Table 1, read-out: IC50); 0.36 µg/mL with V79/ADM [3] (setting [6]); 0.074 µg/mL in the test on V79/ADM [3] (setting [7]); 0.019 µg/mL in the test on V79/S [5] (setting [6]); 0.0081 µg/mL with V79/S [5] (setting [8]). The Potentiation activity in the test with V79/ADM [3] (with compound (I) 3 μg/ml) is recorded as 4.9 times; in the test with V79/S [5] (with compound (I) 10 μg/ml) it was 2.3 times.
`CC[C@]1(O)C[C@@H]2CN(CCc3c([nH]c4ccccc34)[C@@](C(=O)OC)(c3cc4c(cc3OC)N(C)[C@H]3[C@@](O)(C(N)=O)[C@H](O)[C@]5(CC)C=CCN6CC[C@]43[C@@H]65)C2)C1` [VDS, vindesine]: the “Efficacy ratio (rated significant by Fisher's test)” value in test [4] (0.5 μg/ml) is listed as 0/8.
`COC(COC(N)=O)C1=C(N2CC2)C(=O)C(C)=C(N2CC2)C1=O` (stereo not shown) [CQ, carboquone]: the “Efficacy ratio (rated significant by Fisher's test)” value in test [4] (0.1 μg/ml) is 1/8.
Turning to `CN(Cc1cnc2nc(N)nc(N)c2n1)c1ccc(C(=O)N[C@@H](CCC(=O)O)C(=O)O)cc1` [MTX, methotrexate], the IC50 in the test with V79/S [1] (Cricetulus griseus, 216 h) is 0.017 µg/mL (≈ 0.0374 µM); in the test on V79/ADM [2] (Cricetulus griseus, 216 h), 0.0078 µg/mL (≈ 0.0172 µM); with V79/ADM [3] (setting [6]) it was 0.0078 µg/mL; in the test with V79/ADM [3] (with compound (I) 5 μg/ml, read-out: IC50 in combination with compound (I)), less than 0.0025 µg/mL; in the test with V79/S [5] (setting [6]), 0.014 µg/mL; in the test on V79/S [5] (setting [8]), 0.017 µg/mL. Besides, the Potentiation activity in the test with V79/ADM [3] (with compound (I) 5 μg/ml) is greater than 3.12 times; with V79/S [5] (with compound (I) 10 μg/ml), 0.8 times. Besides, in test [4] (3.0 μg/ml), the “Efficacy ratio (rated significant by Fisher's test)” value was 1/8.
Take `CC[C@]1(O)C[C@@H]2CN(CCc3c([nH]c4ccccc34)[C@@](C(=O)OC)(c3cc4c(cc3OC)N(C)[C@H]3[C@@](O)(C(=O)OC)[C@H](OC(C)=O)[C@]5(CC)C=CCN6CC[C@]43[C@@H]65)C2)C1` [VLB, vinblastine]: in test [4] (0.1 μg/ml), the “Efficacy ratio (rated significant by Fisher's test)” value was 3/8.
With `CC[C@]1(O)C[C@H]2CN(CCc3c([nH]c4ccccc34)[C@@](C(=O)OC)(c3cc4c(cc3OC)N(C=O)[C@H]3[C@@](O)(C(=O)OC)[C@H](OC(C)=O)[C@]5(CC)C=CCN6CC[C@]43[C@@H]65)C2)C1` [VCR, vincristine], the IC50 with V79/ADM [3] (setting [6]) was found to be 0.73 µg/mL; in the test with V79/ADM [3] (setting [7]), 0.0351 µg/mL; in the test on V79/S [5] (setting [6]), 0.0271 µg/mL; in the test on V79/S [5] (setting [8]), 0.00325 µg/mL. Further, the Potentiation activity came to 20.8 times in the test with V79/ADM [3] (with compound (I) 3 μg/ml) and 8.3 times with V79/S [5] (with compound (I) 10 μg/ml). Further, the “Efficacy ratio (rated significant by Fisher's test)” value in test [4] (0.1 μg/ml) is on record as 2/8.
